Test [1] has as its system rat model of arthritis induced by the intra-articular injection of complete Freund's adjuvant (CFA). The test can be described thus: Paw pressure test, CFA-induced arthritis. The class given is in vivo. The settings on record: for antihyperalgesic effect, Paw pressure test, dose equimolar to 30 30 mg/kg: per os, 3 13.23 mg/kg, 15 17.71 mg/kg. On the procedure:
(§1) Articular damage was induced by injection of Complete Freund’s Adjuvant (CFA; Sigma-Aldrich, St Louis, MO, USA), containing 1 mg/mL of heat-killed and dried Mycobacterium tuberculosis in paraffin oil and mannide monooleate, into the tibiotarsal joint.[50] Briefly, the rats were lightly anesthetized with 2% isoflurane, the left leg skin was sterilized with 75% ethyl alcohol, and the lateral malleolus was located by palpation. A 28-gauge needle was then inserted vertically to penetrate the skin and turned distally for insertion into the articular cavity at the gap between the tibiofibular and tarsal bone until a distinct loss of resistance was felt. A volume of 50 μL of CFA was then injected (day 0). Control rats received 50 μL of saline solution (day 0) in the tibiotarsal joint.
(§2) The hybrid derivatives 26, 29, 30, and 31 (1, 10, and 30 mg/kg) were suspended in a 1% solution of carboxymethylcellulose (CMC) sodium salt and acutely per os administered starting from day 14 after CFA i.a. injection, when arthritis was well established. The H2S releaser 3 and CAI 15 were also administered alone or in coadministration at the equimolar dose of compound 30 30 mg/kg (13.23 and 17.71 mg/kg, respectively). The antihypersensitivity effects were evaluated over time by the Paw pressure and Incapacitance tests.
The nociceptive threshold of rats was determined with an analgesimeter (Ugo Basile, Varese, Italy), according to the method described by Leighton et al.[51] and Maresca et al.,[52] (doi: 10.1111/jphp.12828). Briefly, a constantly increasing pressure was applied to a small area of the dorsal surface of the hind paw using a blunt conical probe by a mechanical device. Mechanical pressure was increased until vocalization or a withdrawal reflex occurred while rats were lightly restrained. Vocalization or withdrawal reflex thresholds were expressed in grams. […]

The test system is the same in test [2]. Description: Incapacitance test, CFA-induced arthritis. The class given is in vivo. The settings on record: for antihyperalgesic effect, Incapacitance test, dose equimolar to 30 30 mg/kg: per os, 3 13.23 mg/kg, 15 17.71 mg/kg. How it is done:
as §1, §2
Weight-bearing changes were measured using an incapacitance apparatus (Linton Instrumentation, Norfolk, U.K.) to detect changes in postural equilibrium after a hind limb injury.[53],[54] Rats were trained to stand on their hind paws in a box with an inclined plane (65° from horizontal). This box was placed above the incapacitance apparatus. This allowed us to independently measure the weight that the animal applied on each hind limb. The value reported for each animal is the mean of five consecutive measurements. In the absence of hind limb injury, rats applied an equal weight on both hind limbs, indicating postural equilibrium, whereas an unequal distribution of weight on the hind limbs indicated a monolateral decreased pain threshold. Data are expressed as the difference between the weight applied to the limb contralateral to the injury and the weight applied to the ipsilateral limb (Δ weight).

Test [3] in a line: Spectrophotometric methylene blue H2S release assay in rat liver homogenate. As to conditions: compound 150 μM, 37 °C. How it is done:
The released H2S, trapped by zinc acetate to form zinc sulfide, reacts with N,N-dimethyl-1,4-phenylenediamine in the presence of iron(III) to yield methylene blue, which can be easily quantified by measuring absorbance at 667 nm (MB^+ form) or at 748 nm (MBH^2+).[42],[43] The compound H2S release in different conditions was monitored over time and quantified according to a calibration curve with Na2S (1–300 μM). Incubation of compound 3 and the hybrid derivatives in phosphate buffer at 37 °C either in the presence or absence of thiol compounds (cysteine or glutathione) produced no or a barely detectable H2S release, respectively. […]
Rat liver was homogenized in ice-cold 50 mM potassium phosphate buffer (pH 7.4).[41] Optimal w/v ratios of 1/20 were determined from preliminary experiments (data not shown). […] The released H2S concentration was measured as described previously.[45] […] Baseline H2S concentration was determined in incubates upon addition of trichloroacetic acid directly to the tissue homogenate in absence of the compound. Thus, N,N-dimethyl-p-phenylenediamine sulfate in HCl 5 M (20 mM; 200 μL) and FeCl3 in HCl 1.2 M (30 mM; 200 μL) were added to the mixture, and the absorbance of the formed methylene blue was measured after 30 min at 25 °C at 667 nm using a Varian Cary 300 UV–Visible spectrophotometer. […]

Test [4] concerns the target T1, hCA IX (Homo sapiens, UniProt Q16790). Further details: made in house; method as in Bonardi et al. [29,30]. The settings on record: stopped-flow CO2 hydrase assay; Table S1 footnote b; ref Bonardi et al. [29,30]; cited from earlier work.
For test [5], the target named is T2, hCA IV (Homo sapiens, UniProt P22748). Description: Stopped-flow CO2 hydrase assay, hCA IV. The settings on record: for SI CA I/IV / SI CA II/IV: selectivity index, ratio of KIs.
Procedure: (§3) The uncatalyzed rates were determined in the same manner and subtracted from the total observed rates. Stock solutions of inhibitor (0.1 mM) were prepared in distilled-deionized water and dilutions up to 0.01 nM were done thereafter with the assay buffer. […] The inhibition constants were obtained by nonlinear least-squares methods using PRISM 3 and the Cheng–Prusoff equation, as reported earlier,[39] and represent the mean from at least three different determinations.
Test [6] deals with T3, hCA II (Homo sapiens, UniProt P00918). Description: Stopped-flow CO2 hydrase assay, hCA II. As to conditions: for SI CA I/II: selectivity index, ratio of KIs.
Procedure: as §3
Test [7] addresses T1, hCA IX. The test can be described thus: Stopped-flow CO2 hydrase assay, hCA IX. As to conditions: selectivity index, ratio of KIs.
Procedure: as §3
The target in test [8] is T4, hCA XII (Homo sapiens, UniProt O43570). The test can be described thus: Stopped-flow CO2 hydrase assay, hCA XII. As to conditions: for SI CA I/XII / SI CA II/XII: selectivity index, ratio of KIs.
In test [9] the target is T5, hCA I (Homo sapiens, UniProt P00915). Description: Stopped-flow CO2 hydrase assay, hCA I.
Procedure: as §3
Test [10] has as its target T2, hCA IV. On the set-up: made in house; method as in Bonardi et al. [29,30]. As to conditions: stopped-flow CO2 hydrase assay; Table S1 footnote b; ref Bonardi et al. [29,30]; cited from earlier work.
In test [11] the target is T3, hCA II. Further details: made in house; method as in Bonardi et al. [29,30]. As to conditions: stopped-flow CO2 hydrase assay; Table S1 footnote b; ref Bonardi et al. [29,30]; cited from earlier work.
The target in test [12] is T4, hCA XII. On the set-up: made in house; method as in Bonardi et al. [29,30]. As to conditions: stopped-flow CO2 hydrase assay; Table S1 footnote b; ref Bonardi et al. [29,30]; cited from earlier work.
The target in test [13] is T5, hCA I. On the set-up: made in house; method as in Bonardi et al. [29,30]. As to conditions: stopped-flow CO2 hydrase assay; Table S1 footnote b; ref Bonardi et al. [29,30]; cited from earlier work.

Like-named read-outs stand apart in the source and are kept apart here.

T4 sequence (O43570 25-354): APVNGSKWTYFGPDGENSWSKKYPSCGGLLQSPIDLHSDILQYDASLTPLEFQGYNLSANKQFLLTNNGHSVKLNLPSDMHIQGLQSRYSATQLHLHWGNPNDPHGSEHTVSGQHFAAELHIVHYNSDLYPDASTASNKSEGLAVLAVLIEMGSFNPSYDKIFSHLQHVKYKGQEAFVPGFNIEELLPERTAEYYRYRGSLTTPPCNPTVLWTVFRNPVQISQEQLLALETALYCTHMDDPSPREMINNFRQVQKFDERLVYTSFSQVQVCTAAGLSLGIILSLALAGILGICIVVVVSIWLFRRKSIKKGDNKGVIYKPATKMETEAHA
T2 sequence (P22748 19-312): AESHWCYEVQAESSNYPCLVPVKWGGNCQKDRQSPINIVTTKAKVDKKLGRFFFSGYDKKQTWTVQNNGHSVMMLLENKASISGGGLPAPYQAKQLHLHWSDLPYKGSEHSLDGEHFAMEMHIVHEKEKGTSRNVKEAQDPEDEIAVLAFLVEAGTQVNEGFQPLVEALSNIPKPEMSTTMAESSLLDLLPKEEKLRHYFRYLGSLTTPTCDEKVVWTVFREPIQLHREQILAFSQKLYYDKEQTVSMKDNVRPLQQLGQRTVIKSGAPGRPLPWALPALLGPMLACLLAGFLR
T5 sequence (P00915 whole entry): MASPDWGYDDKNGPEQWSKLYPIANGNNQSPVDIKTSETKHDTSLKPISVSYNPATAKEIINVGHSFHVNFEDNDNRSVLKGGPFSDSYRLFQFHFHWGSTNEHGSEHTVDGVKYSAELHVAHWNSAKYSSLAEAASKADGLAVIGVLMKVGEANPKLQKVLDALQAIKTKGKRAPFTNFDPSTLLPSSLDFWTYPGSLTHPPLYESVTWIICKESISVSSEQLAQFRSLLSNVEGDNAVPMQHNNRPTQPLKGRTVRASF

Take `O=C(O)c1ccc(-c2cssc2=S)cc1` [Compound 3, 4-(3-Thioxo-3H-1,2-dithiol-4-yl)benzoic Acid]: the “time of peak antihyperalgesic effect, Paw pressure test” value in [1] (after per os administration) is given as 15 min. Also, the “antihyperalgesic effect, Paw pressure test, dose equimolar to 30 30 mg/kg” value in [1] is “rapid antihyperalgesic effect that peaked at 15 min and totally disappeared after 45 min”. The “time of peak of efficacy, Incapacitance test” value in test [2] (after per os treatment) was determined as 15 min. Besides, in test [2], the “antihyperalgesic effect, Incapacitance test, dose equimolar to 30 30 mg/kg” value is recorded as “comparable to that of the hybrid analogue 30 at its optimal dose”. In test [3], the “time at which H2S release peaked / reached a plateau” value is listed as approximately 20 min.
As a reminder, the Ki is the dissociation constant of the complex between target and ligand, obtained from inhibition or displacement. For the compound `NS(=O)(=O)c1ccc(CCNCc2ccccc2)cc1` [Compound 4, 4-(2-(Benzylamino)ethyl)benzenesulfonamide], the Ki in test [4] was 78.1 nM.
Regarding `NS(=O)(=O)c1ccc(CCNCc2ccc(F)cc2)cc1` [Compound 5, 4-(2-((4-Fluorobenzyl)amino)ethyl)benzenesulfonamide], in test [5], the “SI CA I/IV” value was 0.09 and the “SI CA II/IV” value amounted to 0.06. The “SI CA I/II” value in [6] is 1.4. In [7], the “SI CA I/IX” value worked out at 2.0 and the “SI CA II/IX” value came to 1.4. In test [4], the inhibition constant (Ki) was 56.5 nM. In [8], the “SI CA I/XII” value came out at 1.9 and the “SI CA II/XII” value is 1.3.
Turning to `NS(=O)(=O)c1ccc(CCNCc2ccc([N+](=O)[O-])cc2)cc1` [Compound 10, 4-(2-((4-Nitrobenzyl)amino)ethyl)benzenesulfonamide], in [5], the “SI CA I/IV” value came to 0.1 and the “SI CA II/IV” value was 0.07. For the same compound, the “SI CA I/II” value in test [6] is 1.9. Besides, in test [7], the “SI CA I/IX” value is recorded as 2.5 and the “SI CA II/IX” value is listed as 1.4. Also, the inhibition constant Ki in [4] was 89.2 nM. Further, in [8], the “SI CA I/XII” value is 2.9 and the “SI CA II/XII” value worked out at 1.6.
With `NS(=O)(=O)c1ccc(CCNCc2cccc3ccccc23)cc1` [Compound 15, 4-(2-((Naphthalen-1-ylmethyl)amino)ethyl)benzenesulfonamide], in [5], the affinity corresponds to a Ki of 3010 nM and the “SI CA II/IV” value stood at 0.06. The “antihyperalgesic effect, Paw pressure test, dose equimolar to 30 30 mg/kg” value in [1] is “very weak antihyperalgesic action”. In addition, in test [6], the affinity corresponds to a Ki of 178 nM and the “SI CA I/II” value was determined as 1.5. In test [9], the affinity, expressed as Ki, was 261 nM. In addition, in test [7], the “SI CA I/IX” value was 5.8 and the “SI CA II/IX” value turned out to be 4.0. Moreover, in test [2], the “antihyperalgesic effect, Incapacitance test, dose equimolar to 30 30 mg/kg” value is listed as “absence of effects detected in vivo”. For the same compound, in test [8], affinity was put at a Ki of 54.7 nM, the “SI CA I/XII” value was 4.8 and the “SI CA II/XII” value came to 3.2.
With `NS(=O)(=O)c1ccc(CCNCCc2ccccc2)cc1` [Compound 17, 4-(2-(Phenethylamino)ethyl)benzenesulfonamide], in test [5], the “SI CA II/IV” value stood at 0.02. Also, the “SI CA I/II” value in [6] stood at 3.1. Also, in [7], the “SI CA I/IX” value is 2.7. The inhibitory constant (Ki) in test [4] is 102 nM. Further, in test [8], the “SI CA I/XII” value is recorded as 2.6 and the “SI CA II/XII” value is 0.9.
With `N#CCCNCCc1ccc(S(N)(=O)=O)cc1` [Compound 18, 4-(2-((2-Cyanoethyl)amino)ethyl)benzenesulfonamide], the Ki is 5550 nM in test [10]; 154 nM in test [11]; 113 nM in [12]; 105 nM in [4]; 105 nM in [13]. Besides, the “SI CA I/IV” value in [5] was found to be 0.01. The “SI CA II/IV” value in [5] was found to be 0.02. The “SI CA I/II” value in test [6] amounted to 0.7. In addition, in test [7], the “SI CA I/IX” value worked out at 1.0. Besides, the “SI CA II/IX” value in test [7] stood at 1.5. For the same compound, the “SI CA I/XII” value in [8] is reported as 0.9. Further, the “SI CA II/XII” value in [8] is given as 1.4.

(Values after paper PMC9574929, “Development of Hydrogen Sulfide-Releasing Carbonic Anhydrases IX- and XII-Selective Inhibitors with Enhanced Antihyperalgesic Action in a Rat Model of Arthritis” (Journal of Medicinal Chemistry, 2022).)
